Measured values from US8772480B2, “Inhibitors of PI3 kinase and/or mTOR” (priority 2009, dated 2014).
Where two headings read alike, the source gives them in different places.

Key:
PI3Kα [1] = target: T1, PI3Kα (Homo sapiens (Human), UniProt P42336); conditions: read-out: PI3Kα AlphaScreen ® Ki
[2] = target: human mutant B-raf (HuBraf V600E) (Homo sapiens (Human), UniProt P15056, V600E); conditions: at 10 μM compound concentration; POC = 100 − percent inhibition
[3] = test system: phosphorylation of Akt at Serine 473 in U87 MG cells; assay: cells; conditions: Homo sapiens, U-87 MG, 2 h, read-out: U87Cell IC50, pAkt (Ser 473), U87 MG cells, two hours with compound
PI3Kα [4] = target: T1, PI3Kα; assay: biochemical; conditions: PI3Kα AlphaScreen ® Ki

human mutant B-raf (HuBraf V600E), sequence (P15056 whole entry V600E): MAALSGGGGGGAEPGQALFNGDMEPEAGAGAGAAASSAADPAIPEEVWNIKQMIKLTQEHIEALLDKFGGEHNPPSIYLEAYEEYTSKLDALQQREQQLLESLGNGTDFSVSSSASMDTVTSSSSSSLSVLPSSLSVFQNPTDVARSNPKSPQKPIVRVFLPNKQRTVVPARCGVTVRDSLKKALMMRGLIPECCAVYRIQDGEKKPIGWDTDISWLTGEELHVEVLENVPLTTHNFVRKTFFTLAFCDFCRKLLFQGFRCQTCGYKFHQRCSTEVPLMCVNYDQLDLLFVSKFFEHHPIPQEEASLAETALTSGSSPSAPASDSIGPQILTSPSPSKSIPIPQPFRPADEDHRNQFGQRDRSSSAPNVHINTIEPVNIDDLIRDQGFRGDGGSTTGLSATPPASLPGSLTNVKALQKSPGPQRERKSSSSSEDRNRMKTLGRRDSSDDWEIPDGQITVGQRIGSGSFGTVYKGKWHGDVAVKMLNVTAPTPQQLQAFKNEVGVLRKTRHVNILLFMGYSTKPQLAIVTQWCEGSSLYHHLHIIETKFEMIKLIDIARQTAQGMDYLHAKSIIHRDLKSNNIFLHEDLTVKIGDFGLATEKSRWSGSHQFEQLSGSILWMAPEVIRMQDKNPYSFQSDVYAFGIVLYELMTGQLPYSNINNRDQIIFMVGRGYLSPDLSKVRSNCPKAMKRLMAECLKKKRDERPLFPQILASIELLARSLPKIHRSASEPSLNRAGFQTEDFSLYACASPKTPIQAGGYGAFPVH
T1 sequence (P42336 whole entry): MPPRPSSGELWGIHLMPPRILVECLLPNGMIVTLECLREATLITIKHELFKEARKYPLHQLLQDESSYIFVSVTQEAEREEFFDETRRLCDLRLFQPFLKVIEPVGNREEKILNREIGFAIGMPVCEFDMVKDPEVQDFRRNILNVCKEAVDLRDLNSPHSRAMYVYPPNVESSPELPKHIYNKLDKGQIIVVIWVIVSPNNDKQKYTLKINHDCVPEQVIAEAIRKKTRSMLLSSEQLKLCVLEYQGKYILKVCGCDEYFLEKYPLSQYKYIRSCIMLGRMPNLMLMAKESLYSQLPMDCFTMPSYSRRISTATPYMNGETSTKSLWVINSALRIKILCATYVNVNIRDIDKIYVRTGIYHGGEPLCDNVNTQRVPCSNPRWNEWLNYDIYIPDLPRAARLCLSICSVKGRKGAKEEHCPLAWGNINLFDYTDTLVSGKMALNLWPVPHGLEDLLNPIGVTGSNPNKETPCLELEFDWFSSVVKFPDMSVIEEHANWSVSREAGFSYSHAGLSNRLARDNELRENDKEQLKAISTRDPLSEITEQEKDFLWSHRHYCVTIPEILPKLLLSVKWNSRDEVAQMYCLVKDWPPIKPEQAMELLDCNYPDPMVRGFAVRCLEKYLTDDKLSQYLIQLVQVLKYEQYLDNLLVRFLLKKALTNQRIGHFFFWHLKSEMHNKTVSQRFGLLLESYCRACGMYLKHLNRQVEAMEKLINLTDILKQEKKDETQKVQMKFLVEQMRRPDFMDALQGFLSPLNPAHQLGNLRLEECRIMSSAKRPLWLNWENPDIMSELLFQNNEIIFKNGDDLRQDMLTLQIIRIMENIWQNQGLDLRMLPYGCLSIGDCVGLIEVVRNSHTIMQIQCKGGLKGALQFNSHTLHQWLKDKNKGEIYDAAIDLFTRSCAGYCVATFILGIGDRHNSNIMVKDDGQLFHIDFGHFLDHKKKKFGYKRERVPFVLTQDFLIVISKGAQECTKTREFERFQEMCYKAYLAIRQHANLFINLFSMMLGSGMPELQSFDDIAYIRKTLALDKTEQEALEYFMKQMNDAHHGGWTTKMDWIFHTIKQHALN
T1 sequence (P27986 whole entry partner): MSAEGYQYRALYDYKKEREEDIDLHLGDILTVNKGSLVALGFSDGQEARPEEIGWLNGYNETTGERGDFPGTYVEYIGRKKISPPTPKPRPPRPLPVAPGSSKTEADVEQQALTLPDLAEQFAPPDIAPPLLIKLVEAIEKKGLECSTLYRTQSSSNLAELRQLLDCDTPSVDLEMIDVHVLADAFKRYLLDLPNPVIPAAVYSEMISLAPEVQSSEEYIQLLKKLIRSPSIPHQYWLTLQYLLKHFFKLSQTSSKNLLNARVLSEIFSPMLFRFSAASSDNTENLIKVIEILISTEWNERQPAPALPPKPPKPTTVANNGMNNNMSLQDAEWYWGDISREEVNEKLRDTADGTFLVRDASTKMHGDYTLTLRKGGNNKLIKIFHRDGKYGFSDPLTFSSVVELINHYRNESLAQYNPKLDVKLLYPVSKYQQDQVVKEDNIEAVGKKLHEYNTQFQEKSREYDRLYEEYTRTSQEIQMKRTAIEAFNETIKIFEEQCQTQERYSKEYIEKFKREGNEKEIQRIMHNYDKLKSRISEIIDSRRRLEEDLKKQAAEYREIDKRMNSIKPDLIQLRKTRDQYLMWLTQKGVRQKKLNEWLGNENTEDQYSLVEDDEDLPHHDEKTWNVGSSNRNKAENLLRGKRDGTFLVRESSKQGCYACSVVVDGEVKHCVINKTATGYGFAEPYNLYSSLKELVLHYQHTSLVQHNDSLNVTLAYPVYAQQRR

| SMILES | Ki (PI3Kα [1]) [nM] | Mutant B-raf HTRF Assay POC Mean n = 2 [2] | IC50 [3] [nM] | Ki (PI3Kα [4]) [nM] |
| --- | --- | --- | --- | --- |
| Cc1nc(-c2cccnc2Nc2cccc3[nH]ncc23)c2cn[nH]c2n1 [Example 55, N-(3-(6-methyl-1H-pyrazolo[3,4-d]pyrimidin-4-yl)pyridin-2-yl)-1H-indazol-4-amine] | 1410 | 103% of Control (POC) | – | – |
| Cc1nc(-c2cc(C(F)(F)F)cnc2Nc2cccc3[nH]ncc23)c2nc[nH]c2n1 [Example 65, N-(3-(2-Methyl-9H-Purin-6-yl)-5-(Trifluoromethyl)Pyridine-2-yl)-1H-Indazol-4-Amine] | 119 | 85% of Control (POC) | – | – |
| COc1ccc(Nc2ncc(CN3CCNCC3)cc2-c2nc(C)nc3[nH]cnc23)cn1 [Example 84, N-(6-methoxypyridin-3-yl)-3-(2-methyl-9H-purin-6-yl)-5-(piperazin-1-ylmethyl)pyridin-2-amine] | 97 | 97% of Control (POC) | 1910 | – |
| COc1ccc(Nc2ncc(CCO)cc2-c2nc(C)nc3[nH]cnc23)cn1 [Example 75, 2-(6-(6-methoxypyridin-3-ylamino)-5-(2-methyl-9H-purin-6-yl)pyridin-3-yl)ethanol] | 23 | 94% of Control (POC) | 179 | – |
| Cc1nc(-c2cc(Cl)cnc2Nc2cccc3[nH]ncc23)c2nc[nH]c2n1 [Example 61, N-(5-Chloro-3-(2-methyl-9H-purin-6-yl)pyridin-2-yl)-1H-indazol-4-amine] | 720 | 66% of Control (POC) | 3630 | – |
| Cc1nc(N)cc(-c2cccnc2Nc2cccc(O)c2)n1 [Example 26, 3-(3-(6-Amino-2-Methylpyrimidin-4-yl)Pyridin-2-Ylamino)Phenol] | 24 | 84% of Control (POC) | – | – |
| CC(=O)Nc1ccc(Nc2ncccc2-c2ncnc3[nH]cnc23)cn1 [Example 16, N-(5-(3-(9H-Purin-6-yl)Pyridin-2-Ylamino)Pyridin-2-yl)Acetamide] | > 1500 | 42% of Control (POC) | – | – |
| COc1ccc(COCc2cnc(Nc3cccc4[nH]ccc34)c(-c3nc(C)nc4[nH]cnc34)c2)cc1 [Example 71, N-(5-((4-methoxybenzyloxy)methyl)-3-(2-methyl-9H-purin-6-yl)pyridin-2-yl)-1H-indol-4-amine] | 402 | 75% of Control (POC) | 1190 | – |
| COc1ccc(Nc2ncc(CN3CCN(S(C)(=O)=O)CC3)cc2-c2nc(C)nc3[nH]cnc23)cn1 [Example 85, N-(6-methoxypyridin-3-yl)-3-(2-methyl-9H-purin-6-yl)-5-((4-(methylsulfonyl)piperazin-1-yl)methyl)pyridin-2-amine] | 19 | 90% of Control (POC) | 133 | – |
| Cc1nc(N)cc(-c2cnccc2Nc2cccc3[nH]ccc23)n1 [Example 109, N-(3-(6-amino-2-methylpyrimidin-4-yl)pyridin-4-yl)-1H-indol-4-amine] | – | 35% of Control (POC) | 821 | – |
| Cc1nc(N)cc(-c2cnccc2Nc2cccc3[nH]ncc23)n1 [Example 107, N-(3-(6-amino-2-methylpyrimidin-4-yl)pyridin-4-yl)-1H-indazol-4-amine] | 359 | 62% of Control (POC) | 1540 | – |
| Cc1cnc(Nc2cccnc2)c(-c2nc(C)nc(N)n2)c1 [Example 32, Methyl-6-(5-Methyl-2-(Pyridin-3-Ylamino)Pyridin-3-yl)-1,3,5-Triazin-2-Amine] | 191 | 107% of Control (POC) | 587 | – |

Continued, values first:

| Ki (PI3Kα [1]) [nM] | Mutant B-raf HTRF Assay POC Mean n = 2 [2] | IC50 [3] [nM] | Ki (PI3Kα [4]) [nM] | SMILES |
| --- | --- | --- | --- | --- |
| – | 108% of Control (POC) | 554 | – | C=Cc1cnc(Nc2ccc(OC)nc2)c(-c2nc(C)nc3[nH]cnc23)c1 [Example 73, N-(6-methoxypyridin-3-yl)-3-(2-methyl-9H-purin-6-yl)-5-vinylpyridin-2-amine] |
| > 1500 | 38% of Control (POC) | – | – | Nc1ccc(Nc2ncccc2-c2ncnc3[nH]cnc23)cn1 [Example 17, N3-(3-(9H-Purin-6-yl)Pyridin-2-yl)Pyridine-3,6-Diamine] |
| 33 | 77% of Control (POC) | 8530 | – | Cc1nc(-c2cc(CO)cnc2Nc2cccc3[nH]ncc23)c2nc[nH]c2n1 [Example 72, (6-(1H-indazol-4-ylamino)-5-(2-methyl-9H-purin-6-yl)pyridin-3-yl)methanol] |
| – | – | – | 9 | COc1ncc(Nc2ncc(C(C)CO)cc2-c2nc(C)nc(N)n2)cc1F (single isomer, unassigned) [312 First eluting, 2-(5-(4-Amino-6-methyl-1,3,5-triazin-2-yl)-6-(5-fluoro-6-methoxypyridin-3-ylamino)pyridin-3-yl)propan-1-ol] |
| 9 | 99% of Control (POC) | 129 | – | COc1ccc(Nc2cnc(Nc3ccc(OC)nc3)c(-c3nc(C)nc4[nH]cnc34)c2)cc1 [Example 90, N5-(4-methoxyphenyl)-N2-(6-methoxypyridin-3-yl)-3-(2-methyl-9H-purin-6-yl)pyridine-2,5-diamine] |
| 107 | 96% of Control (POC) | 441 | – | COc1ccc(Nc2ncc(N3CCOCC3)cc2-c2nc(C)nc3[nH]cnc23)cn1 [Example 97] |
| 62 | 103% of Control (POC) | 173 | – | COc1ncc(Nc2ncccc2-c2nc(C)nc3[nH]cnc23)cn1 [Example 66, 2-Methoxy-N-(3-(2-Methyl-9H-Purin-6-yl)Pyridin-2-yl)Pyrimidin-5-Amine] |
| 50 | 107% of Control (POC) | > 10000 | – | Cc1nc(-c2cc(Br)cnc2Nc2cccc3[nH]ncc23)c2nc[nH]c2n1 [Example 64, N-(5-bromo-3-(2-methyl-9H-purin-6-yl)pyridin-2-yl)-1H-indazol-4-amine] |
| – | – | – | 7 | COc1ncc(Nc2ncc(C(C)CO)cc2-c2nc(C)nc(N)n2)cc1F (single isomer, unassigned) [312 Second eluting, 2-(5-(4-Amino-6-methyl-1,3,5-triazin-2-yl)-6-(5-fluoro-6-methoxypyridin-3-ylamino)pyridin-3-yl)propan-1-ol] |
| 44 | 108% of Control (POC) | 195 | – | COc1ccc(Nc2ncc(CO)cc2-c2nc(C)nc3[nH]cnc23)cn1 [Example 76, (6-(6-Methoxypyridin-3-Ylamino)-5-(2-Methyl-9H-Purin-6-yl)Pyridin-3-yl)Methanol] |
| 1330 | 87% of Control (POC) | 3070 | – | Cc1nc(N)nc(-c2cccnc2Nc2ccc(N)nc2)n1 [Example 50, N5-(3-(4-Amino-6-Methyl-1,3,5-Triazin-2-yl)Pyridin-2-yl)Pyridine-2,5-Diamine] |
| – | 94% of Control (POC) | – | – | COc1ccc(Nc2ncc(CN3CCOCC3)cc2-c2nc(C)nc(N)n2)cn1 [Example 44, 4-(2-(6-methoxypyridin-3-ylamino)-5-(morpholinomethyl)pyridin-3-yl)-6-methyl-1,3,5-triazin-2-amine] |
